The results in this text go back to patent US20240216410A1, “METHODS AND COMPOSITIONS FOR TREATING CANCER THERAPY-INDUCED NEUTROPENIC FEVER AND/OR GVHD” (BOARD OF REGENTS, THE UNIVERSITY OF TEXAS SYSTEM, priority 2021, published 2024).

“Also recorded” adds a separate entry of the source.

Data set [1] in a line: Meropenem concentrations in cecal contents after subcutaneous injection (LC-MS). The class given is in vivo, mice. As to conditions: 4, 8, 24, 48 and 96 hours. As to the method: To further explore a potential causal relationship between meropenem and intestinal GVHD, the effects of meropenem on GVHD in a mouse model of allo-HSCT were examined. A method of administering meropenem to mice was first developed that would better mimic the effects of meropenem on the intestinal microbiome of patients, which is typically given every 8 hours intravenously. Previously, antibiotics were administered subcutaneously to mice (25), and meropenem concentrations were quantified in the cecal lumen of mice 4, 8, 24, 48 and 96 hours after subcutaneous injection. […] Next, drinking water was evaluated as a means of continuously administering meropenem to mice, using bacterial density quantified by 16S ribosomal RNA (16S rRNA) gene quantitative PCR (qPCR) to gauge reductions of the intestinal microbiota.
Pharmacokinetics of meropenem by Triple Quadruple liquid chromatography-mass spectrometry (LC-MS). C57BL/6 mice were treated with 10 mg of meropenem by subcutaneously injection. Cecal contents were collected prior to, 4, 8, 24, 48, and 96 hours after meropenem injection. To determine the relative abundance of meropenem in mouse cecum samples, extracts were prepared and analyzed with a THERMO […]™ TSQ […]™ triple quadruple mass spectrometer coupled with a DIONEX™ ULTIMATE™ 3000 HPLC system. […]

The subject of data set [2] is Enterococcus faecalis (MDA-JAX EF001). The experiment in a line: MIC of meropenem by MIC test strips. The class given is cell-based. The conditions noted are these: mouse-derived. As for the experimental part: (§1) The minimum inhibitory concentration (MIC) of meropenem against murine BT was quantified using MIC test strips (Table 4).
(§2) Culturing of bacteria. Mouse-derived BT (MDA-JAX BT001), Enterococcus faecalis (MDA-JAX EF001) and Clostridium disporicum (MDA-JAX CD001), Clostridium saudiense (MDA-JAX CS001), and Lachnospiraceae unclassified (MDA-JAX LS001) were isolated and cultured from mouse stool samples suspended in 1 ml of chilled 20% anaerobic glycerol in a Whitley anaerobic chamber (10% H2, 5% CO2 and 85% N2). Human-derived BT (ATCC 29148) was purchased from ATCC. Bacterial number was quantified using a Nexcelom Cellometer cell counter with SYTO™ BC dye and propidium iodide. For measuring MICs against meropenem, bacteria were cultured on BYE plates including 5% sterilized rumen fluid (Fisher Scientific) with MIC test strips (LIOFILCHEM™ MTS™ Meropenem [MRP] 0.016-256 μg/mL, THERMO FISHER […]™)). Bacterial growth experiments were in liquid media were performed in a novel bacterial media, BYEM10, composed of a hybrid of BHI and M10 supplemented with yeast extract (Table 5).

The subject of data set [3] is Bacteroides thetaiotaomicron (MDA-JAX BT001). Kind of data set: MIC of meropenem by MIC test strips. The class given is cell-based. As to conditions: mouse-derived BT. As to the method: as §1, §2
Data set [4] relates to Bacteroides thetaiotaomicron (ATCC 29148). The experiment in a line: MIC of meropenem by MIC test strips. The class given is cell-based. The conditions noted are these: ATCC29148, human-derived BT. As for the experimental part:
as §1, §2

In data set [5] the test system is intestinal microbiota. The experiment in a line: Murine GVHD model: fecal microbiome composition (16S rRNA sequencing) and bacterial density (qPCR). The class given is in vivo, mice. As for the experimental part:
Effects of meropenem treatment on the composition of the intestinal microbiota of allo-HSCT mice were also examined (FIG. 15F).
Sequencing of 16S rRNA gene amplicons. Fecal samples from patients and mice were weighed before DNA isolation. In brief, genomic DNA was isolated using the QIAAMP® DNA mini kit (51306, QIAGEN®) according to the manufacturer's protocol that was modified to include an intensive bead-beating lysis step. The V4 region of 16S rRNA gene was amplified by PCR from 100 ng of each of extracted and purified genomic DNA using 515 forward and 806 reverse primer pairs (59). The quality and quantity of the barcoded amplicons were assessed on an Agilent 4200 TapeStation system (Agilent) and QUBIT™ Fluorometer (THERMO FISHER […]™), and libraries were prepared after pooling at equimolar ratios. The final libraries were purified using […]® gel extraction kit (28706X4, QIAGEN®) and sequenced with a 2×250 base pair paired-end protocol on the […]® MISEQ™ platform.
Microbiome data analysis. Sequencing data from paired-end reads were de-multiplexed using QIIME 2 (60). Merging of paired-end reads, dereplicating, and length filtering was performed using VSEARCH 2.17.1 (61). Following de-noising and chimera calling using the unoise3 command (62), unique sequences were taxonomically classified with mothur (63) using the Silva database (64) version 138. Weighted UniFrac distances (65) were determined using QIIME 2, visualized using principal coordinate analysis, and evaluated for statistical significance using permutational multivariate analysis of variance (PERMANOVA) testing. For differential abundance analysis, abundances of sequences belonging to taxonomical groups were included for analysis using the Mann-Whitney U test and adjusted for multiple comparisons using the method of Benjamini and Hochberg. Paired samples were analyzed using the Wilcoxon signed rank test with adjustment for multiple comparisons.
Quantification of fecal bacterial density. Genomic DNA was isolated from stool as described above. qPCR was performed as previously described (66). In brief, 16S rRNA gene sequences were amplified from total fecal DNA using the primers 926F (5′-[…]-3′, where K is a G or a T; SEQ ID NO:2) and 1062R (5′-[…]-3′, where R is an A or a G; SEQ ID NO:3). Real-time PCR were carried out in 96-well optical plates on QUANTSTUDIO™ Flex 6 RT PCR (APPLIED BIOSYSTEMS™) and KAPA SYBR® FAST Master Mix (Roche). The PCR conditions included one initial denaturing step of 10 min at 95° C. and 40 cycles of 95° C. for 20 sec and 60 °C for 1 min. Melting-curve analysis was performed after amplification. To determined bacterial density, a plasmid with a 16S rRNA gene of a murine Blautia isolate was generated in the pCR4 backbone and used as a standard.
In general terms: Quantitative PCR measures a nucleic acid by following its amplification.

Usually MIC stands for the lowest concentration found to suppress growth. Regarding `C[C@@H](O)[C@H]1C(=O)N2C(C(=O)O)=C(S[C@@H]3CN[C@H](C(=O)N(C)C)C3)[C@H](C)[C@H]12` [meropenem], in data set [1], the “meropenem concentrations in the cecum” value is reported as “increase in meropenem concentrations in the cecum at 4 hours after injection, which rapidly declined thereafter”. In addition, the MIC stood at 12 µg/mL in data set [2], 4 µg/mL in data set [3] and 6 µg/mL in data set [4]. Further, in data set [5] (allo-HSCT mice, days 0, 7, 14, 21), the “abundance of murine BT” value is recorded as “suppressed by meropenem-supplemented drinking water but quickly expanded after cessation of meropenem therapy; also recorded: higher abundances of BT”. The “abundance of Clostridia” value in data set [5] (allogeneic mice, days 0, 7, 14, 21) is given as “significantly decreased; also recorded: depleted”. The fecal bacterial density result in data set [5] (day 14 after allo-HSCT, during meropenem treatment) is “significantly decreased bacterial density”; in data set [5] (day 21, 6 days after stopping meropenem), “recovered to a level similar to that of untreated syngeneic and allogeneic mice”. Further, the “alpha diversity (inverse Simpson index)” value in data set [5] (fecal samples day 21) is reported as “significantly reduced”. Further, the bacterial genera depleted entry in data set [5] (fecal samples day 21) is “many genera were depleted, including Blautia, Lachnoclostridium, and other members of Lachnospiraceae”. Besides, the “bacterial genera with increased abundance” value in data set [5] (fecal samples day 21) is “significantly higher abundances of bacteria from several genera, including most substantially Bacteroides, as well as Enterococcus, Erysipelatoclostridium, Bifidobacterium and Akkermansia”.
